Reference: patent US12552767B2, “3-heteroaryl pyrrolidine and piperidine orexin receptor agonists” (Merck Sharp & Dohme LLC, priority 2020, dated 2026)

Molecular target: T1, human OX2R (Homo sapiens, UniProt O43614)
T1 construct: expressed in transfected cells; host or cells: CHO (Chinese hamster ovary) cells, grown under G418 selection
T1 sequence (O43614 1-444): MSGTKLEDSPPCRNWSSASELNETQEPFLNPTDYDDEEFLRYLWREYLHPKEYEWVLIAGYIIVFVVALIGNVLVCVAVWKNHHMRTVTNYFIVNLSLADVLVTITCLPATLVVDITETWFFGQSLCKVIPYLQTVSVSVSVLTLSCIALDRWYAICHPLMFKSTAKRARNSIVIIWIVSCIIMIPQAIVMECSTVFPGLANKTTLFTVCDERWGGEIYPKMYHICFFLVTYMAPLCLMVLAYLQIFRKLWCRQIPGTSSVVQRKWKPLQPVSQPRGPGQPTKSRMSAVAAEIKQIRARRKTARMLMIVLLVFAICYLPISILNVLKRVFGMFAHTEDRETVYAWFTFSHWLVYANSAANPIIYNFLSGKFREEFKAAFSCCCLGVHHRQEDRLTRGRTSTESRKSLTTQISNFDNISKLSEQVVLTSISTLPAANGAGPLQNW
Test: IP-One (IPOne) orexin receptor agonist assay in CHO cells expressing human OX2R
Type: cell-based
Details: for EC50: CHO cells expressing human OX2R, IP-One IP-1 detection, 2 hours incubation, four parameter logistic fit, read-out: OX2R Potency, EC50; for % of reference agonist maximal effect: human OX2R, percentage of sample raw value/mean max effect (reference compound at 1 uM with 100% activity)
Procedure, shortened: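 CHO cells stably expressing human OX2R were stimulated with compound (10-point ½-log dilutions) for 2 h at 37 °C. IP-1 accumulation was read by HTRF (IP-One, 665/620 nm). EC50 from a four-parameter fit; % effect relative to 1 μM reference agonist control.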

| EC50 | % of reference agonist maximal effect | Compound |
| --- | --- | --- |
| 9.77 µM | 55.8% | CCC[C@](C)(F)C(=O)N1CCC[C@H](c2cc[nH]n2)[C@@H]1COC1CCC(C(C)C)CC1 (stereo partly drawn) [Example 89, (S)-2-fluoro-1-((CIS)-2-((((CIS)-4-isopropylcyclohexyl)oxy)methyl)-3-(1H-pyrazol-3-yl)piperidin-1-yl)-2-methylpentan-1-one] |
| 7.47 µM | 51.4% | C#C[C@H](C)OC(=O)N1CCC[C@H](c2cc[nH]n2)[C@@H]1CO[C@H]1CC[C@@H](c2ccccc2)CC1 [Example 115, (S)-but-3-yn-2-yl (CIS)-2-((((CIS)-4-phenylcyclohexyl)oxy)methyl)-3-(1H-pyrazol-3-yl)piperidine-1-carboxylate] |
| 0.754 µM | 91.3% | O=C(OCC(F)F)N1CCC[C@H](c2cc[nH]n2)[C@@H]1CO[C@H]1CC[C@@H](c2ccccc2)CC1 (relative stereo) [Example 96, 2,2-difluoroethyl (CIS)-2-((((CIS)-4-phenylcyclohexyl)oxy)methyl)-3-(1H-pyrazol-3-yl)piperidine-1-carboxylate] |
| 2.36 µM | 61.8% | C#CCOC(=O)N1CCC[C@H](c2cc[nH]n2)[C@@H]1CO[C@H]1CC[C@@H](c2ccccc2)CC1 (relative stereo) [Example 100, prop-2-yn-1-yl (CIS)-2-((((CIS)-4-phenylcyclohexyl)oxy)methyl)-3-(1H-pyrazol-3-yl)piperidine-1-carboxylate] |
| 1.82 µM | 88.9% | CC(OC(=O)N1CCC[C@H](c2cc[nH]n2)[C@@H]1CO[C@H]1CC[C@@H](c2ccccc2)CC1)C(F)F (relative stereo) [Example 99, 1,1-difluoropropan-2-yl (CIS)-2-((((CIS)-4-phenylcyclohexyl)oxy)methyl)-3-(1H-pyrazol-3-yl)piperidine-1-carboxylate] |
| 8.2 µM | 92.3% | CC(C)[C@H]1CC[C@@H](OC[C@H]2[C@@H](c3cc[nH]n3)CCCN2C(=O)NC2CCCCC2)CC1 (relative stereo) [Example 124, (CIS)-N-cyclohexyl-2-((((CIS)-4-isopropylcyclohexyl)oxy)methyl)-3-(1H-pyrazol-3-yl)piperidine-1-carboxamide] |
| 7.08 µM | 73.9% | CC(C)[C@H]1CC[C@@H](OC[C@H]2[C@@H](c3cc[nH]n3)CCCN2C(=O)C2CCCC2)CC1 (relative stereo) [Example 83, cyclopentyl((CIS)-2-((((CIS)-4-isopropylcyclohexyl)oxy)methyl)-3-(1H-pyrazol-3-yl)piperidin-1-yl)methanone] |
| 3.22 µM | 79.3% | CC(C)C(=O)N1CCC[C@H](c2cc[nH]n2)[C@@H]1CO[C@H]1CC[C@@H](C(C)C)CC1 (relative stereo) [Example 73, 1-((CIS)-2-((((CIS)-4-isopropylcyclohexyl)oxy)methyl)-3-(1H-pyrazol-3-yl)piperidin-1-yl)-2-methylpropan-1-one] |
| 0.944 µM | 100% | COCC(C)NC(=O)N1CCC[C@H](c2cc[nH]n2)[C@@H]1CO[C@H]1CC[C@@H](c2ccccc2)CC1 (relative stereo) [Example 126, (CIS)-N-(1-methoxypropan-2-yl)-2-((((CIS)-4-phenylcyclohexyl)oxy)methyl)-3-(1H-pyrazol-3-yl)piperidine-1-carboxamide] |
| 2.42 µM | 93.6% | CC(C)[C@H]1CC[C@@H](OC[C@H]2[C@@H](c3cc[nH]n3)CCCN2C(=O)NCc2ccccc2)CC1 (relative stereo) [Example 122, (CIS)-N-benzyl-2-((((CIS)-4-isopropylcyclohexyl)oxy)methyl)-3-(1H-pyrazol-3-yl)piperidine-1-carboxamide] |

More lines, now with the values behind:

| Compound | EC50 | % of reference agonist maximal effect |
| --- | --- | --- |
| COC(=O)N1CCC[C@H](c2n[nH]cc2C)[C@@H]1COC1CCN(c2ncccn2)CC1 (relative stereo) [Example 6, Methyl (CIS)-3-(4-methyl-1H-pyrazol-3-yl)-2-(((1-(pyrimidin-2-yl)piperidin-4-yl)oxy)methyl)piperidine-1-carboxylate] | 1.27 µM | 96.6% |
| COCc1c[nH]nc1[C@H]1CCCN(C(=O)OC)[C@H]1CO[C@H]1CC[C@@H](c2ccccc2)CC1 (relative stereo) [Example 57, Methyl cis-3-(4-(methoxymethyl)-1H-pyrazol-3-yl)-2-((((CIS)-4-phenylcyclohexyl)oxy)methyl)-piperidine-1-carboxylate] | 0.351 µM | 99.6% |
| COC(=O)N1[C@H](C)CC(c2[nH]ncc2C)[C@@H]1CO[C@H]1CC[C@@H](c2ccccc2)CC1 (stereo partly drawn) [Example 36, Methyl (2R,5R)-5-methyl-3-(4-methyl-1H-pyrazol-5-yl)-2-((((CIS)-4-phenylcyclohexyl)oxy)methyl)pyrrolidine-1-carboxylate] | 1.03 µM | 96.3% |
| O=C(OCC(F)(F)F)N1CCCC(c2ccn[nH]2)C1CO[C@H]1CC[C@@H](c2c(F)ccc(F)c2F)CC1 (relative stereo) [Example 31, 2,2,2-Trifluoroethyl 3-(1H-pyrazol-5-yl)-2-((((CIS)-4-(2,3,6-trifluorophenyl)cyclohexyl)-oxy)methyl)piperidine-1-carboxylate] | 7.44 µM | 72.7% |
| CCNC(=O)N1CCC[C@@H](c2ccn[nH]2)[C@H]1CO[C@H]1CC[C@@H](C(C)C)CC1 (single isomer, unassigned) [Example 5] | 3.19 µM | 99.6% |
| Cc1c[nH]nc1[C@H]1CCCN(C(=O)OCC(F)F)[C@H]1CO[C@H]1CC[C@@H](c2cccc(F)c2)CC1 (relative stereo) [Example 16, 2,2-difluoroethyl (CIS)-2-((((CIS)-4-(3-fluorophenyl)cyclohexyl)oxy)methyl)-3-(4-methyl-1H-pyrazol-3-yl)piperidine-1-carboxylate] | 0.126 µM | 99.9% |
| O=C(NCC(F)(F)F)N1CCCC(c2ccn[nH]2)C1CO[C@H]1CC[C@@H](c2c(F)ccc(F)c2F)CC1 (stereo partly shown) [Example 34] | 0.0178 µM | 99.9% |
| CCNC(=O)N1CCCC(c2ccn[nH]2)C1CO[C@H]1CC[C@@H](c2c(F)ccc(F)c2F)CC1 (stereo partly shown) [Example 33] | 0.0472 µM | 100.3% |
| COC(=O)N1CCC[C@H](c2[nH]ncc2C(F)(F)F)[C@@H]1CO[C@H]1CC[C@@H](c2ccccc2)CC1 (relative stereo) [Example 25, methyl (CIS)-2-((((CIS)-4-phenylcyclohexyl)oxy)methyl)-3-(4-(trifluoromethyl)-1H-pyrazol-5-yl)piperidine-1-carboxylate] | 0.879 µM | 92.8% |
| COC(=O)N1CCC[C@H](c2n[nH]cc2Cl)[C@@H]1CO[C@H]1CC[C@@H](c2ccccc2Cl)CC1 (racemic) [Example 47, Methyl cis-3-(4-chloro-1H-pyrazol-3-yl)-2-((((CIS)-4-(2-chlorophenyl)cyclohexyl)oxy)methyl)piperidine-1-carboxylate] | 0.357 µM | 99.2% |
| COC(=O)N1[C@H](C)CC(c2ccn[nH]2)[C@@H]1CO[C@H]1CC[C@@H](c2ccccc2)CC1 (stereo partly drawn) [Example 37, Methyl (2R,5R)-5-methyl-2-((((CIS)-4-phenylcyclohexyl)oxy)methyl)-3-(1H-pyrazol-5-yl)pyrrolidine-1-carboxylate] | 5.11 µM | 85.3% |
| O=C(Oc1cccnc1)N1CCC[C@H](c2cc[nH]n2)[C@@H]1CO[C@H]1CC[C@@H](c2ccccc2)CC1 (relative stereo) [Example 101, pyridin-3-yl (CIS)-2-((((CIS)-4-phenylcyclohexyl)oxy)methyl)-3-(1H-pyrazol-3-yl)piperidine-1-carboxylate] | 2.51 µM | 77.7% |
| COC(=O)N1CCC[C@H](c2n[nH]cc2C(F)F)[C@@H]1CO[C@H]1CC[C@@H](c2ccccc2)CC1 (single isomer, unassigned) [Example 55] | 0.0975 µM | 100.8% |
| CCNC(=O)N1CC[C@H](c2cc[nH]n2)[C@@H]1CO[C@H]1CC[C@@H](c2ccccc2)CC1 (relative stereo) [Example 28, (CIS)-N-ethyl-2-((((CIS)-4-phenylcyclohexyl)ox)methyl)-3-(1H-pyrazol-3-yl)pyrrolidine-1-carboxamide] | 5.96 µM | 22.9% |
| COC(=O)N1CCC[C@H](c2ncn[nH]2)[C@@H]1CO[C@H]1CC[C@@H](c2ccccc2)CC1 (relative stereo) [Example 26, methyl (CIS)-2-((((CIS)-4-phenylcyclohexyl)oxy)methyl)-3-(1H-1,2,4-triazol-5-yl)piperidine-1-carboxylate] | 2.43 µM | 83.6% |
| CCNC(=O)N1CCCC(c2[nH]ncc2C)C1COC1CCC(C(C)C)CC1 (single isomer, unassigned) [Example 60, N-ethyl-2-(((4-isopropylcyclohexyl)oxy)methyl)-3-(4-methyl-1H-pyrazol-5-yl)piperidine-1-carboxamide] | 0.0563 µM | 100% |
